We go through one molecule from patent US20170327797A1, “R[…] CCCDNA, THE METHOD TO GENERATE THEREOF AND THE USE THEREOF” (priority 2015, published 2017).

The test system of assay [1] is HBV (HBVcircle transfected HepG2 cells). Kind of assay: In vitro anti-HBV drug evaluation in HBVcircle transfected HepG2 cells. It counts as cell-based. The settings on record: treated 6 days. As for the experimental part:
X-[…] HP DNA transfection reagent (from Roche) was used for transfection. One day before transfection, cells were trypsinized and seeded onto plates, Cells were seeded at 0.8×10^5/well in 24 well plates for HepG2 and proliferation HepaRG cell line, and 3×10^5/well in 24 well plates for differentiated HepaRG cell line.
(§1) HBeAg or HBsAg were measured by using the HBeAg or HBsAg ELISA kit (from Autobio) according to the manufacturer's direction.
The transfected HepG2 cells were lysed using lysis buffer (50 mM Tris-HCl, pH8.0, 100 mM NaCl, 1% CA-630, 1×EDTA free proteinase inhibitor). After incubation at 4° C. for 1 h with agitation, cytoplasmic lysate was cleared by centrifugation. The lysate was separated by electrophoresis in 1.5% agarose gel and then transferred onto PVDF membrane (for Western blotting) or a positively charged nylon membrane (for southern blotting), for detecting the capsid protein and encapsidated DNA respectively.
After SDS-PAGE, gels were transferred to PVDF membrane by using iblot system (from Invitrogen). […]
The sample was loaded to an electrophoresis of 1.5% agarose gel in 1×TAE buffer for 2-3 hours. […] After incubating blots with an alkaline-phosphatase-conjugated anti-DIG antibody, hybridization signals were detected in a standard chemiluminescence reaction.
Next, the feasibility of evaluating anti-HBV drugs using HBVcircle system in cell culture models was assessed. […]

Assay [2] concerns HBV (HBVcircle injected C3H/HeN mice). Kind of assay: In vivo anti-HBV drug evaluation in HBVcircle HDI mice. The conditions noted are these: 10 μg HBVcircle, 0.03mg/kg QD orally for 29 days from day 23. As for the experimental part: The animals were grouped based on Day-1 body weights. On Day 0, all animals were subjected to hydrodynamic injection through tail vein within 5 seconds with 2.5-20 μg DNA in a volume (mL) of saline equivalent to 8% of body weight (g) (Liu, et al., 1999, Gene Ther, 6: 1258-66, Zhang, et al., 1999, Hum Gene Ther, 10: 1735-7). After animal exclusion due to technical failure of hydrodynamic injection or low HBV marker expression on Day 1 or Day 3, the remaining mice were maintained for long term evaluation. Blood samples were collected for serum preparation on indicated time post HDI injection.
For compound treatment, on Day 20 post HDI (DAY-3 of compound treatment), C3H/HeN mice were divided into 4 groups based on serum HBsAg levels and body weights on DAY 20. ETV and R848 were diluted in saline from stock solutions on treatment days. Vehicle was RC591. All test compounds were given orally with indicated dose and frequency.
as §1
HBV DNA in cell culture supernatant or mouse serum was extracted using MagNA Pure 96 System MagNA Pure 96 System (from Roche). HBV DNA levels were determined via RT-PCR. The primer and probe sequences are shown below. […]

Take `C=C1[C@H](CO)[C@@H](O)C[C@@H]1n1cnc2c(=O)[nH]c(N)nc21` [ETV, Entecavir]: in assay [1], the “HBV DNA replication (encapsidated HBV DNA, southern blot)” value was “efficiently blocked HBV DNA replication in a dose dependent manner” and the “other viral proteins expression” value is listed as “did not affect other viral proteins expression”. In assay [2], the “HBV DNA in serum” value is “efficiently reduced HBV DNA in serum to undetectable level”.
